Assay results as given in paper PMC3798130 (Angewandte Chemie (International Ed. in English), 2013).

Legend:
JMJD2E (KDM4E) [1] = molecular target: T1, JMJD2E (KDM4E) (Homo sapiens, UniProt B2RXH2); assay: MALDI-TOF MS activity assay; type: biochemical; conditions: 1 hour, 25 °C, pH 7.5, mass gain
T1 sequence (B2RXH2 1-506): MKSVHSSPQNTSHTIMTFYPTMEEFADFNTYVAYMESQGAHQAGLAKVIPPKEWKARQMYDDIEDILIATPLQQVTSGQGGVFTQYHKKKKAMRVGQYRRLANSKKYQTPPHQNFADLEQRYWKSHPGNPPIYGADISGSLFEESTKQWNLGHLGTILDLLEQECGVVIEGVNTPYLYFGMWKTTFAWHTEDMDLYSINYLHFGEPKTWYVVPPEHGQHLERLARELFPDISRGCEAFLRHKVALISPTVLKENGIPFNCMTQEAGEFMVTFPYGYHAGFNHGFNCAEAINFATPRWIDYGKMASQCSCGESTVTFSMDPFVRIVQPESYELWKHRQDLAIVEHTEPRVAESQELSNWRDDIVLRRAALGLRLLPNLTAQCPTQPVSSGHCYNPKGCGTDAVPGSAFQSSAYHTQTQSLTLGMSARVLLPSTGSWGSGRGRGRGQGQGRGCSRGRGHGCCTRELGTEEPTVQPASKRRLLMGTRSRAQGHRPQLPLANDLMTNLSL

JMJD2E (KDM4E) [2] = molecular target: T1, JMJD2E (KDM4E); assay: Kinetic parameters for reactions of lysine analogue peptides with JMJD2E; type: biochemical; conditions: MALDI-TOF initial rates

## ART-Lys(Me3)-QTAR-Lys(iPr)-STGGKA [H3 Lysine-9(iPr)]
JMJD2E (KDM4E) [1]
  mass of product greater than substrate peptide (hydroxylation): 16 Da
JMJD2E (KDM4E) [2]
  KM, Vmax and kcat compared with other peptides: higher than values for the other three peptides

## ART-Lys(Me3)-QTAR-Lys(Me/iPr)-STGGKA [H3 Lysine-9(Me/iPr)]
JMJD2E (KDM4E) [1]
  mass of product greater than substrate peptide (hydroxylation): 16 Da
